Test results from patent US7109193B2, “Tricyclic diazepines tocolytic oxytocin receptor antagonists” (Wyeth, priority 2001, dated 2006).

Target: T1, human oxytocin receptor (Homo sapiens, UniProt P30559)
T1 construct: host or cells: CHO cells (pcDNA3.1 vector)
T1 sequence (P30559 1-389): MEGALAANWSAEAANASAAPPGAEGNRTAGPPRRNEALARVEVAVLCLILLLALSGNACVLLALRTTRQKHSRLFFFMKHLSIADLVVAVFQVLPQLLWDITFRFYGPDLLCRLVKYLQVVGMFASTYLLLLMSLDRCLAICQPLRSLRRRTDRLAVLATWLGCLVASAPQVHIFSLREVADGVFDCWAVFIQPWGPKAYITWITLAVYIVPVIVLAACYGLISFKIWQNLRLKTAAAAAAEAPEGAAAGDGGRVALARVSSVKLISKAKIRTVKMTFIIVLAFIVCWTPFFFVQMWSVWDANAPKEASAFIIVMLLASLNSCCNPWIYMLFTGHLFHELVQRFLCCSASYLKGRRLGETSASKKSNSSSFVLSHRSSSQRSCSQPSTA
Test: Oxytocin binding in Chinese Hamster Ovary cell membranes expressing human oxytocin receptors
Conditions: CHO cell membranes, [3H]oxytocin; for inhibition at 0.1 µM: 100 nM, values without parentheses, read-out: OT % inhibition @ 100% nM; for IC50: values in parentheses, read-out: OT (IC50)

inhibition at 0.1 µM [%]	IC50 [nM]	Compound
96	–	Cc1ccccc1-c1ccc(C(=O)N2Cc3ccc(C(=O)N(C)CCCN(C)C)n3Cc3ccccc32)cc1 [Example 104, N-[3-(Dimethylamino)propyl]-N-methyl-10-[(2′-methyl[1,1′-biphenyl]-4-yl)carbonyl]-10,11-dihydro-5H-pyrrolo[2,1-c][1,4]benzodiazepine-3-carboxamide]
–	5.39	COc1cc(-c2ccccc2C)c(Cl)cc1C(=O)N1Cc2ccc(C(=O)N3CCCN(C)CC3)n2Cc2ccccc21 [Example 60, {10-[(6-Chloro-3-methoxy-2′-methyl[1,1′-biphenyl]-4-yl)carbonyl]-10,11-dihydro-5H-pyrrolo[2,1-c][1,4]benzodiazepin-3-yl}(4-methyl-1,4-diazepan-1-yl)methanone]
–	2.61	COc1ccccc1-c1ccc(C(=O)N2Cc3ccc(C(=O)N4CC[C@@H](N(C)C)C4)n3Cc3ccccc32)cc1C [Example 272, [(3R)-3-(Dimethylamino)pyrrolidinyl]{10-[(2′-methoxy-2-methyl[1,1′-biphenyl]-4-yl)carbonyl]-10,11-dihydro-5H-pyrrolo[2,1-c][1,4]benzodiazepin-3-yl}methanone]
–	7.93	COc1cc(-c2ccccc2C)c(Cl)cc1C(=O)N1Cc2ccc(C(=O)N3CCC(N4CCCCC4)CC3)n2Cc2ccccc21 [Example 110, {10-[(6-Chloro-3-methoxy-2′-methyl[1,1′-biphenyl]-4-yl)carbonyl]-10,11-dihydro-5H-pyrrolo[2,1-c][1,4]benzodiazepin-3-yl}[4-(1-piperidinyl)-1-piperidinyl]methanone]
–	6.37	Cc1cc(C(=O)N2Cc3ccc(C(=O)NC(=N)N)n3Cc3ccccc32)ccc1-c1ccccc1C(F)(F)F [Example 8, N-[(10-{[2-methyl-2′-(trifluoromethyl)[1,1′-biphenyl]-4-yl]carbonyl}-10,11-dihydro-5H-pyrrolo[2,1-c][1,4]benzodiazepin-3-yl)carbonyl]guanidine]
–	7.19	COc1cc(-c2ccccc2C)c(Cl)cc1C(=O)N1Cc2ccc(C(=O)N3CCC(N4CCCC4)CC3)n2Cc2ccccc21 [Example 136, {10-[(6-Chloro-3-methoxy-2′-methyl[1,1′-biphenyl]-4-yl)carbonyl]-10,11-dihydro-5H-pyrrolo[2,1-c][1,4]benzodiazepin-3-yl}[4-(1-pyrrolidinyl)-1-piperidinyl]methanone]
–	14.5	COc1cc(-c2ccccc2F)c(Cl)cc1C(=O)N1Cc2cccn2Cc2ccccc21 [Example 18B, 10-{[6-Chloro-3-methoxy-2′-fluoro-[1,1′-biphenyl]-4-yl]carbonyl}-10,11-dihydro-5H-pyrrolo[2,1-c][1,4]benzodiazepine]
–	2.31	COc1cc(-c2ccccc2C)c(Cl)cc1C(=O)N1Cc2ccc(C(=O)N(C)CCN(C)C)n2Cc2ccccc21 [Example 86, 10-[(6-Chloro-3-methoxy-2′-methyl[1,1′-biphenyl]-4-yl)carbonyl]-N-[2-(dimethylamino)ethyl]-N-methyl-10,11-dihydro-5H-pyrrolo[2,1-c][1,4]benzodiazepine-3-carboxamide]
99	–	COc1cc(C(=O)N2Cc3ccc(C(=O)N(C)CCN(C)C)n3Cc3ccccc32)ccc1-c1ccccc1C [Example 92, N-[2-(Dimethylamino)ethyl]-10-[(2-methoxy-2′-methyl[1,1′-biphenyl]-4-yl)carbonyl]-N-methyl-10,11-dihydro-5H-pyrrolo[2,1-c][1,4]benzodiazepine-3-carboxamide]
–	185	COc1cc(-c2ccccc2C(F)(F)F)c(OC)cc1C(=O)N1Cc2cccn2Cc2ccccc21 [Example 32, 10-{[3,6-Dimethoxy-2′-trifluoromethyl-[1,1′-biphenyl]-4-yl]carbonyl}-10,11-dihydro-5H-pyrrolo[2,1-c][1,4]benzodiazepine]
–	3.02	Cc1cc(C(=O)N2Cc3ccc(C(=O)N(C)CCN(C)C)n3Cc3ccccc32)ccc1-c1ccccc1C(F)(F)F [Example 85, N-[2-(Dimethylamino)ethyl]-N-methyl-10-{[2-methyl-2′-(trifluoromethyl)[1,1′-biphenyl]-4-yl]carbonyl}-10,11-dihydro-5H-pyrrolo[2,1-c][1,4]benzodiazepine-3-carboxamide]
97	–	COc1cccc(-c2ccc(C(=O)N3Cc4ccc(C(=O)N(C)CCN(C)C)n4Cc4ccccc43)cc2OC)c1 [Example 95, 10-[(2,3′-Dimethoxy[1,1′-biphenyl]-4-yl)carbonyl]-N-[2-(dimethylamino)ethyl]-N-methyl-10,11-dihydro-5H-pyrrolo[2,1-c][1,4]benzodiazepine-3-carboxamide]
88	–	COc1cc(C(=O)N2Cc3ccc(C(=O)N(C)CCCN(C)C)n3Cc3ccccc32)ccc1-c1cccc2ccccc12 [Example 106, N-[3-(Dimethylamino)propyl]-10-[3-methoxy-4-(1-naphthyl)benzoyl]-N-methyl-10,11-dihydro-5H-pyrrolo[2,1-c][1,4]benzodiazepine-3-carboxamide]
90	–	COc1cc(C(=O)N2Cc3ccc(C(=O)N(C)CCN(C)C)n3Cc3ccccc32)ccc1-c1cccc2ccccc12 [Example 93, N-[2-(Dimethylamino)ethyl]-10-[3-methoxy-4-(1-naphthyl)benzoyl]-N-methyl-10,11-dihydro-5H-pyrrolo[2,1-c][1,4]benzodiazepine-3-carboxamide]
–	2.48	COc1cc(-c2ccccc2C)c(Cl)cc1C(=O)N1Cc2ccc(C(=O)N(C)CCCN(C)C)n2Cc2ccccc21 [Example 98, 10-[(6-Chloro-3-methoxy-2′-methyl[1,1′-biphenyl]-4-yl)carbonyl]-N-[3-(dimethylamino)propyl]-N-methyl-10,11-dihydro-5H-pyrrolo[2,1-c][1,4]benzodiazepine-3-carboxamide]
–	17.8	COc1ccccc1-c1ccc(C(=O)N2Cc3ccc(C(=O)N4CCN(CCCN(C)C)CC4)n3Cc3ccccc32)cc1 [Example 246, {4-[3-(Dimethylamino)propyl]-1-piperazinyl}{10-[(2′-methoxy[1,1′-biphenyl]-4-yl)carbonyl]-10,11-dihydro-5H-pyrrolo[2,1-c][1,4]benzodiazepin-3-yl}methanone]
–	16.9	COc1ccccc1-c1ccc(C(=O)N2Cc3ccc(C(=O)N4CCN(CCCN(C)C)CC4)n3Cc3ccccc32)cc1C [Example 245, {4-[3-(Dimethylamino)propyl]-1-piperazinyl}{10-[(2′-methoxy-2-methyl[1,1′-biphenyl]-4-yl)carbonyl]-10,11-dihydro-5H-pyrrolo[2,1-c][1,4]benzodiazepin-3-yl}methanone]
54	–	CN(C)CCN(C)C(=O)c1ccc2n1Cc1ccccc1N(C(=O)c1ccc(-c3cccc4ccccc34)cc1Cl)C2 [Example 96, 10-[2-Chloro-4-(1-naphthyl)benzoyl]-N-[2-(dimethylamino)ethyl]-N-methyl-10,11-dihydro-5H-pyrrolo[2,1-c][1,4]benzodiazepine-3-carboxamide]
10	–	CN(C)CCCNC(=O)c1ccc2n1Cc1ccccc1N(C(=O)c1ccc(-c3cccc4ccccc34)cc1Cl)C2 [Example 83, 10-[2-Chloro-4-(1-naphthyl)benzoyl]-N-[3-(dimethylamino)propyl]-10,11-dihydro-5H-pyrrolo[2,1-c][1,4]benzodiazepine-3-carboxamide]
43	–	COc1ccccc1-c1ccc(C(=O)N2Cc3ccc(C(=O)NCCCN(C)C)n3Cc3ccccc32)cc1OC [Example 81, 10-[(2,2′-Dimethoxy[1,1′-biphenyl]-4-yl)carbonyl]-N-[3-(dimethylamino)propyl]-10,11-dihydro-5H-pyrrolo[2,1-c][1,4]benzodiazepine-3-carboxamide]
44	–	COc1cc(C(=O)N2Cc3ccc(C(=O)NCCCN(C)C)n3Cc3ccccc32)ccc1-c1cccc2ccccc12 [Example 80, N-[3-(Dimethylamino)propyl]-10-[3-methoxy-4-(1-naphthyl)benzoyl]-10,11-dihydro-5H-pyrrolo[2,1-c][1,4]benzodiazepine-3-carboxamide]
97	–	COc1cccc(-c2ccc(C(=O)N3Cc4ccc(C(=O)N(C)CCN(C)C)n4Cc4ccccc43)cc2C)c1 [Example 89, N-[2-(Dimethylamino)ethyl]-10-[(3′-methoxy-2-methyl[1,1′-biphenyl]-4-yl)carbonyl]-N-methyl-10,11-dihydro-5H-pyrrolo[2,1-c][1,4]benzodiazepine-3-carboxamide]
–	4.5	COc1ccccc1-c1ccc(C(=O)N2Cc3ccc(C(=O)N4CCCN(C)CC4)n3Cc3ccccc32)cc1 [Example 61, {10-[(2′-Methoxy[1,1′-biphenyl]-4-yl)carbonyl]-10,11-dihydro-5H-pyrrolo[2,1-c][1,4]benzodiazepin-3-yl}(4-methyl-1,4-diazepan-1-yl)methanone]
–	7.14	Cc1cc(C(=O)N2Cc3ccc(C(=O)N(C)CCCN(C)C)n3Cc3ccccc32)ccc1-c1ccccc1C(F)(F)F [Example 97, N-[3-(Dimethylamino)propyl]-N-methyl-10-{[2-methyl-2′-(trifluoromethyl)[1,1′-biphenyl]-4-yl]carbonyl}-10,11-dihydro-5H-pyrrolo[2,1-c][1,4]benzodiazepine-3-carboxamide]
–	5.39	COc1cc(-c2ccccc2C)c(Cl)cc1C(=O)N1Cc2ccc(C(=O)N3CCN(CCN(C)C)CC3)n2Cc2ccccc21 [Example 197, {10-[(6-Chloro-3-methoxy-2′-methyl[1,1′-biphenyl]-4-yl)carbonyl]-10,11-dihydro-5H-pyrrolo[2,1-c][1,4]benzodiazepin-3-yl}{4-[2-(dimethylamino)ethyl]-1-piperazinyl}methanone]
